# Experimental data reported in US20130203715A1, “USE OF TRP CHANNEL AGONISTS TO TREAT INFECTIONS” (Pulmatrix, Inc., priority 2010, published 2013).
# Like-named read-outs stand apart in the source and are kept apart here.
# Tests used:
# [1] = system: Influenza A/Panama/2007/99; type: cell-based; conditions: for Effect of TRP channel antagonist on 8×Ca:Na formulation-mediated reduction of influenza infection: Calu-3 cells pretreated with antagonist (RR 1 μM, SKF96365 10 μM, RN1734 1-100 μM), then 8×Ca:Na formulation
# rhinovirus (RV16) = type: cell-based, human rhinovirus
# [2] = system: Influenza A/Panama/2007/99; experiment: Influenza infection of normal human bronchial epithelial (NHBE) cells, viral titer by TCID50; type: cell-based, Influenza A (H3N2); conditions: for Effect of TRPV4 agonist on influenza replication in NHBE cells: agonist 1 μM one hour prior to infection and reapplied 3 h after, compared to PBS control
# parainfluenza (hPIV3) = type: cell-based, human parainfluenza virus
# [3] = Calu-3 cells pretreated with ruthenium red 1 μM, then 8×Ca:Na formulation
# [4] = Calu-3 cells, treatment alone, compared to untreated control
# [5] = reduction of influenza infection, TCID50 24 h after infection
# [6] = reduction of influenza infection, agonist applied apically 1 h before and again 3 h after infection, titer 24 h after infection
structure (smiles),measurement,setting,value
N.N.N.N.N.N.N.N.N.N.N.N.N.N.[Cl-].[Cl-].[Cl-].[Cl-].[Cl-].[Cl-].[O-2].[O-2].[Ru+3].[Ru+3].[Ru+4] [Ruthenium Red],Effect of antagonist on Formulation I reduction of influenza viral titer,"[1]; Calu-3 cells pre-treated with ruthenium red 1 μM, then dry powder Formulation I",attenuated
same,Effect of antagonist on Formulation II reduction of influenza infection,"[1]; Calu-3 cells pre-treated with ruthenium red 1 μM, then dry powder Formulation II",attenuated
same,Effect of TRP channel antagonist on 8×Ca:Na formulation-mediated reduction of influenza infection,[1],the effect on viral infection was reduced to levels comparable to the untreated control cells
same,Effect of antagonist on 8×Ca:Na formulation efficacy against rhinovirus,rhinovirus (RV16); [3],the efficacy of the 8× treatment was reduced
same,Effect of antagonist on 8×Ca:Na formulation anti-viral action in NHBE cells,[2]; ruthenium red 1 μM before 8×Ca:Na formulation,blocked the anti-viral action of the Ca:Na formulation
same,Effect of antagonist on 8×Ca:Na formulation efficacy against parainfluenza,parainfluenza (hPIV3); [3],the efficacy of the 8× treatment was reduced
"CCCCCCCCCC(=O)O[C@@H]1[C@@H](C)[C@@]2(O)[C@@H](C=C(CO)C[C@@]3(O)C(=O)C(C)=C[C@@H]23)[C@@H]2C(C)(C)[C@]12OC(=O)CCCCCCCCC [4αPDD, 4α-Phorbol 12,13-didecanoate]",Active concentrations,[1],-9 to -5 M
same,Effect on influenza infection (viral titer) of Calu-3 cells,[1],reduces influenza infection
same,Max reduction in titer (Log10),[1],2.9 Log10
same,Effect on rhinovirus infection of Calu-3 cells,"rhinovirus (RV16); Calu-3 cells, RV16, compared to untreated control",able to reduce
same,Effect of TRPV4 agonist on influenza replication in NHBE cells,[2],reduced influenza replication
same,Effect on parainfluenza infection of Calu-3 cells,"parainfluenza (hPIV3); Calu-3 cells, hPIV3, compared to untreated control",able to reduce
Cc1ccc(C(C)C)cc1O [Carvacrol],Active concentrations,[1],−6.5 to −4M^
same,Max reduction in titer (Log10),[1],3 Log10
same,Effect on influenza infection (viral titer) of Calu-3 cells,[1]; [4],reduced influenza titer in a dose responsive manner
COc1cc(CNC(=O)CCCC/C=C/C(C)C)ccc1O [Capsacin],Active concentrations,[1],-8 to -4 M
same,Max reduction in titer (Log10),[1],2.2 Log10
CC(C)NCCN(C(C)C)S(=O)(=O)c1ccc(Cl)cc1Cl [RN1734],Effect of TRP channel antagonist on 8×Ca:Na formulation-mediated reduction of influenza infection,[1],inhibited the 8×Ca:Na formulation-mediated reduction of influenza infection in a dose dependent manner
CC(C)C[C@H](NC(=O)c1cc2ccccc2s1)C(=O)N1CCN(C(=O)[C@H](CO)NS(=O)(=O)c2ccc(Cl)cc2Cl)CC1 [GSK1016790A],Active concentrations,[1],-11 to -6 M
same,Max reduction in titer (Log10),[1],5.0 Log10
same,Effect on influenza infection (viral titer) of Calu-3 cells,[1]; [4],reduces influenza infection in a dose-dependent manner
same,Effect on influenza infection (viral titer) of Calu-3 cells,"[1]; Calu-3 cells, treatment alone, compared to untreated control, listed as GSK10168790",the highest level of anti-viral efficacy in a dose-dependent manner
same,Effect of TRPV4 agonist on influenza replication in NHBE cells,[2],reduced influenza replication
O=C(O)c1ccccc1Nc1cccc(C(F)(F)F)c1 [Flufenamic acid],Effect on influenza infection (viral titer) of Calu-3 cells,[1]; [4],reduced influenza titer in a dose responsive manner
same,Max reduction in titer (Log10),[1]; [5],2.5 Log10
same,Active concentrations,[1]; [6],-6 to -4 M
C=C(C)[C@]12C[C@@H](C)[C@@]34O[C@](Cc5ccccc5)(O[C@@H]1[C@@H]3C=C(COC(=O)Cc1ccc(O)c(OC)c1)C[C@]1(O)C(=O)C(C)=C[C@@H]41)O2 [Resiniferatoxin],Active concentrations,[1],-6 to -4 M
same,Max reduction in titer (Log10),[1],3.3 Log10
O=[N+]([O-])c1cc(Cl)ccc1S(=O)(=O)N1CCN(Cc2ccccc2)CC1 [RN1747],Active concentrations,[1],-8 to -4 M
same,Max reduction in titer (Log10),[1],2.3 Log10
same,Effect on influenza infection (viral titer) of Calu-3 cells,[1]; [4],reduces influenza infection in a dose-dependent manner
COc1ccc(CCCOC(Cn2ccnc2)c2ccc(OC)cc2)cc1 (centres unmarked) [SKF96365],Effect of TRP channel antagonist on 8×Ca:Na formulation-mediated reduction of influenza infection,[1],the effect on viral infection was reduced to levels comparable to the untreated control cells
CC1CCC(C(C)C)C(O)C1 (centres unmarked) [Menthol],Effect on influenza infection (viral titer) of Calu-3 cells,[1]; [4],reduced influenza titer in a dose responsive manner
same,Max reduction in titer (Log10),[1]; [5],2.5 Log10
same,Active concentrations,[1]; [6],-7 to -4 M
O=C1NC(c2cccc([N+](=O)[O-])c2)=CCN1c1ccccc1O [Icilin],Effect on influenza infection (viral titer) of Calu-3 cells,[1]; [4],"small, but measurable reduction of influenza titer"
same,Max reduction in titer (Log10),[1]; [5],1 Log10
same,Active concentrations,[1]; [6],-6 to -4 M
